Columns and labels:
Trachea [1] = assay: Inhibition of carbachol-induced contraction of Sprague-Dawley rat tracheal rings after 30 mins by isometric tension technique; format: functional, tissue-based; details: 0.5 h
Trachea [2] = assay: Inhibition of acetylcholine-induced contraction of Sprague-Dawley rat tracheal rings after 30 mins by isometric tension technique; format: functional, tissue-based

| Structure (SMILES) | EC50 (Trachea [1]) [nM] | inhibition (Trachea [2]) | EC50 (Trachea [2]; 0.5 h) [nM] |
| --- | --- | --- | --- |
| CO[C@@H]1C[C@H](O[C@H]2[C@@H](O)C[C@H](O[C@@H]3[C@@H](C)O[C@@H](O[C@H]4CC[C@@]5(C)C(=CC[C@@H]6C(=O)O[C@@H]7CO[C@]8(C)OC=C(CC[C@@H]65)[C@H]78)C4)C[C@H]3OC)O[C@@H]2C)O[C@@H](C)[C@@H]1O | 480 | Dose-dependent effect | 850 |
| C[C@@H]1O[C@@H](O[C@H]2[C@H](O[C@H]3CC[C@@]4(C)[C@@H](CC[C@]5(C)[C@@H]4CC=C4[C@@H]6CC(C)(C)CC[C@]6(C(=O)O)CC[C@]45C)[C@]3(C)CO)OC[C@H](O)[C@@H]2O)[C@H](O)[C@H](O)[C@H]1O [ALPHA-HEDERIN] | 1000 |  |  |
| CC(C)NC[C@H](O)c1ccc(O)c(O)c1 [LEVISOPRENALINE] | 130 |  |  |

— ChEMBL document CHEMBL3232968, “Potent airway smooth muscle relaxant effect of cynatratoside B, a steroidal glycoside isolated from Cynanchum stauntonii” (J Nat Prod, 2014)
